Data taken from patent publication US20250230193A1, “CYCLIC COMPOUND HAVING SELECTIVE KRAS INHIBITORY EFFECT ON HRAS AND NRAS” (CHUGAI SEIYAKU KABUSHIKI KAISHA, priority 2022, published 2025).
Where a SMILES comes first, the peptide text is derived from it. Bridges are numbered along the chain shown (N, C = ends). [ ]: non-standard residue; d: D form. The star is where a group is joined. hPhe(3-Cl-4-CF3) = N[C@@H](CCc1ccc(C(F)(F)F)c(Cl)c1)C(=O)O; NPrPhe(4-CF3) = CCCN[C@@H](Cc1ccc(C(F)(F)F)cc1)C(=O)O; NMeGly(cPent) = CN[C@H](C(=O)O)C1CCCC1; NMeD = CN[C@@H](CC(=O)O)C(=O)O; NMeL = CN[C@@H](CC(C)C)C(=O)O; Morpholide = C1CN(*)CCO1; Ac5c = NC1(C(=O)O)CCCC1; Aze = O=C(O)[C@@H]1CCN1; Sar = CNCC(=O)O

Columns and labels:
[1] = target: GDP-bound NRAS wild-type protein (Homo sapiens, UniProt P01111); assay: Binding to NRAS by surface plasmon resonance (SPR), Single Cycle Kinetics; conditions: for NRAS/KRAS (ratio of KD value with respect to NRAS to KD value with respect to KRAS) / NRAS/KRAS (ratio of KD value for NRAS to KD value for KRAS): GDP-bound NRAS wild-type vs GDP-bound KRAS wild-type
Chain of GDP-bound NRAS wild-type protein (P01111 whole entry): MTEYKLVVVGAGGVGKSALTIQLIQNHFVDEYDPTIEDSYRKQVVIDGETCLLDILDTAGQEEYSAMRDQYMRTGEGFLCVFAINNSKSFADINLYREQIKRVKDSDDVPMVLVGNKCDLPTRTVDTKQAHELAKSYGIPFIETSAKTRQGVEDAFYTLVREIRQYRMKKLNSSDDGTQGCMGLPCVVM

[2] = target: GDP-bound HRAS wild-type protein (Homo sapiens, UniProt P01112); assay: Binding to HRAS by surface plasmon resonance (SPR), Single Cycle Kinetics; conditions: for HRAS/KRAS (ratio of KD value with respect to HRAS to KD value with respect to KRAS) / HRAS/KRAS (ratio of KD value for HRAS to KD value for KRAS): GDP-bound HRAS wild-type vs GDP-bound KRAS wild-type
Chain of GDP-bound HRAS wild-type protein (P01112 whole entry): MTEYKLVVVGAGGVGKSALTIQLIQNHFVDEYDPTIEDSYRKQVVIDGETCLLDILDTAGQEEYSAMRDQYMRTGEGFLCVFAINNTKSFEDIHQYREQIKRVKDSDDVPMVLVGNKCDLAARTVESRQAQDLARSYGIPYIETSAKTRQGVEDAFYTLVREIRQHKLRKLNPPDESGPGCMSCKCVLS

[3] = KD ratio NRAS/KRAS, SPR, GDP-bound wild-type proteins
[4] = KD ratio HRAS/KRAS, SPR, GDP-bound wild-type proteins
[5] = KD ratio NRAS/KRAS, class symbols
[6] = KD ratio HRAS/KRAS, class symbols

In the case of `CC[C@H](C)[C@@H]1NC(=O)[C@H](CC(C)C)N(C)C(=O)C[C@@H](C(=O)N2C3CCC2COC3)N(C)C(=O)[C@H](C2CCCC2)N(C)C(=O)C2(CCCC2)NC(=O)[C@@H]2CCCN2C(=O)[C@H](CCc2cc(F)c(C(F)(F)F)c(F)c2)NC(=O)CN(C)C(=O)[C@H](Cc2ccc(C(F)(F)F)cc2)N2CCCC[C@@H](C2=O)N(C)C(=O)CN(C)C1=O` [PP0573], the “NRAS/KRAS (ratio of KD value with respect to GDP-bound NRAS wild-type protein to KD value with respect to KRAS)” value ([1]; KD ratio NRAS/KRAS, SPR) is reported as “B (a compound having 3 or more and less than 10 is denoted as B)” and the “HRAS/KRAS (ratio of KD value with respect to GDP-bound HRAS wild-type protein to KD value with respect to KRAS)” value ([2]; KD ratio HRAS/KRAS, SPR) is reported as “B (a compound having 3 or more and less than 10 is denoted as B)”.
For `CCC[C@H]1C(=O)N[C@@H](C2CCCCC2)C(=O)N(C)CC(=O)N(C)[C@H]2C/C=C\CCN(C2=O)[C@@H](Cc2ccc(C(F)(F)F)cc2)C(=O)N(C)CC(=O)N[C@@H](CCc2ccc(C(F)(F)F)c(Cl)c2)C(=O)N2C[C@H](OCC)C[C@H]2C(=O)NC2(CC(C)(C)C2)C(=O)N(C)[C@@H]([C@@H](C)CC)C(=O)N(C)[C@H](C(=O)N(C)C)CC(=O)N1C` [PP3015], the “NRAS/KRAS (ratio of KD value with respect to GDP-bound NRAS wild-type protein to KD value with respect to KRAS)” value [1, 3] was “AA (a compound having 20 or more is denoted as AA)” and the “HRAS/KRAS (ratio of KD value with respect to GDP-bound HRAS wild-type protein to KD value with respect to KRAS)” value [2, 4] was “A (a compound having 10 or more and less than 20 is denoted as A)”.
For `CCO[C@@H]1C[C@H]2C(=O)NC3(CCC3)C(=O)N(C)[C@@H](C3CCCC3)C(=O)N(C)[C@H](C(=O)N3C4CCC3COC4)CC(=O)N(C)[C@@H](CC)C(=O)N[C@@H]([C@@H](C)CC)C(=O)N(C)CC(=O)N(C)[C@H]3C/C=C\CCN(C3=O)[C@@H](Cc3ccc(C(F)(F)F)cc3)C(=O)N(C)CC(=O)N[C@@H](CCc3cc(F)c(C(F)(F)F)c(F)c3)C(=O)N2C1` [PP1093], the “NRAS/KRAS (ratio of KD value with respect to NRAS to KD value with respect to KRAS)” value ([1]; KD ratio, SPR) was “AA (a compound having 20 or more is denoted as AA)” and the “HRAS/KRAS (ratio of KD value with respect to HRAS to KD value with respect to KRAS)” value ([2]; KD ratio, SPR) was “A (a compound having 10 or more and less than 20 is denoted as A)”.
In the case of `CC[C@H](C)[C@@H]1NC(=O)[C@H](CC(F)F)N(C)C(=O)C[C@@H](C(=O)N(C)CC)N(C)C(=O)[C@H](C2CCCC2)N(C)C(=O)C2(CC(C)(C)C2)NC(=O)[C@@H]2C[C@@H](C)CN2C(=O)[C@H](CCc2ccc(C(F)(F)F)c(Cl)c2)NC(=O)CN(C)C(=O)[C@H](Cc2ccc(C)cc2)N2CC/C=C\C[C@@H](C2=O)N(C)C(=O)CN(C)C1=O` [PP1837], the “NRAS/KRAS (ratio of KD value for NRAS to KD value for KRAS)” value ([1]; KD ratio, SPR) is reported as “A (a compound having 10 or more and less than 20 is denoted as A)” and the “HRAS/KRAS (ratio of KD value for HRAS to KD value for KRAS)” value ([2]; KD ratio, SPR) is reported as “A (a compound having 10 or more and less than 20 is denoted as A)”.
For `CCC[C@H]1C(=O)N[C@@H]([C@@H](C)CC)C(=O)N(C)CC(=O)N(C)[C@H]2C/C=C\CCN(C2=O)[C@@H](Cc2ccc(C)cc2)C(=O)N(C)CC(=O)N[C@@H](CCc2ccc(Cl)c(Cl)c2)C(=O)N2C[C@H](OCC)C[C@H]2C(=O)NC2(CC(C)(C)C2)C(=O)N(C)[C@@H](C(CC)CC)C(=O)N(C)[C@H](C(=O)N(C)C)CC(=O)N1C` [PP2184], the “NRAS/KRAS (ratio of KD value with respect to NRAS to KD value with respect to KRAS)” value ([1]; SPR) was “AA (a compound having 20 or more is denoted as AA)” and the “HRAS/KRAS (ratio of KD value with respect to HRAS to KD value with respect to KRAS)” value ([2]; SPR) was “A (a compound having 10 or more and less than 20 is denoted as A)”.
In the case of `CCO[C@@H]1C[C@H]2C(=O)NC3(CC(C)(C)C3)C(=O)N(C)[C@@H](C3CCCC3)C(=O)N(C)[C@H](C(=O)N3CCCCC3)CC(=O)N(C)[C@H]3CC/C=C/c4ccc(cc4)C[C@@H](C(=O)N(C)CC(=O)N[C@@H](CCc4ccc(Cl)c(Cl)c4)C(=O)N2C1)N1CC/C=C\C[C@@H](C1=O)N(C)C(=O)CN(C)C(=O)[C@H]([C@@H](C)CC)NC3=O` [PP2597], the “NRAS/KRAS (ratio of KD value with respect to GDP-bound NRAS wild-type protein to KD value with respect to KRAS)” value [1, 5] is reported as “A (a compound having 10 or more and less than 20 is denoted as A)” and the “HRAS/KRAS (ratio of KD value with respect to GDP-bound HRAS wild-type protein to KD value with respect to KRAS)” value [2, 6] is reported as “A (a compound having 10 or more and less than 20 is denoted as A)”.
With `CCO[C@@H]1C[C@H]2C(=O)N(C)C3(CCCC3)C(=O)N(C)[C@@H](C3CCCC3)C(=O)N(C)[C@H](C(=O)N(C)C)CC(=O)N(C)[C@@H](CC)C(=O)N[C@@H]([C@@H](C)CC)C(=O)N(C)CC(=O)N(C)[C@H]3C/C=C\CCN(C3=O)[C@@H](Cc3ccc(C(F)(F)F)cc3)C(=O)N(C)CC(=O)N[C@@H](CCc3cc(F)c(C(F)(F)F)c(F)c3)C(=O)N2C1` [PP1804] the “NRAS/KRAS (ratio of KD value for NRAS to KD value for KRAS)” value ([1]; KD ratio, SPR) was “A (a compound having 10 or more and less than 20 is denoted as A)” and the “HRAS/KRAS (ratio of KD value for HRAS to KD value for KRAS)” value ([2]; KD ratio, SPR) was “A (a compound having 10 or more and less than 20 is denoted as A)”.
With `CCO[C@@H]1C[C@H]2C(=O)NC3(CCC3)C(=O)N(C)[C@@H](C3CCCC3)C(=O)N(C)[C@H](C(=O)N(C)C)CC(=O)N(C)[C@@H](Cc3cccnc3)C(=O)N[C@@H]([C@@H](C)CC)C(=O)N(C)CC(=O)N(C)[C@H]3CCCCN(C3=O)[C@@H](Cc3ccc(C(F)(F)F)cc3)C(=O)N(C)CC(=O)N[C@@H](CCc3cc(F)c(C(F)(F)F)c(F)c3)C(=O)N2C1` [PP0703] the “NRAS/KRAS (ratio of KD value with respect to GDP-bound NRAS wild-type protein to KD value with respect to KRAS)” value ([1]; KD ratio NRAS/KRAS, SPR) was “C (A compound having a KD ratio of 0.1 or more and less than 3 is denoted as C)” and the “HRAS/KRAS (ratio of KD value with respect to GDP-bound HRAS wild-type protein to KD value with respect to KRAS)” value ([2]; KD ratio HRAS/KRAS, SPR) was “B (a compound having 3 or more and less than 10 is denoted as B)”.
For `CCO[C@@H]1C[C@H]2C(=O)NC3(CCC3)C(=O)N(C)[C@@H](C(CC)CC)C(=O)N(C)[C@H](C(=O)N3CCCCC3)CC(=O)N(C)[C@H]3CCCCC/C=C/c4ccc(cc4)C[C@@H](C(=O)N(C)CC(=O)N[C@@H](CCc4ccc(Cl)c(Cl)c4)C(=O)N2C1)N1CC/C=C\C[C@@H](C1=O)N(C)C(=O)CN(C)C(=O)[C@H]([C@@H](C)CC)NC3=O` [PP3051], the “NRAS/KRAS (ratio of KD value with respect to GDP-bound NRAS wild-type protein to KD value with respect to KRAS)” value [1, 3] was “AA (a compound having 20 or more is denoted as AA)” and the “HRAS/KRAS (ratio of KD value with respect to GDP-bound HRAS wild-type protein to KD value with respect to KRAS)” value [2, 4] was “A (a compound having 10 or more and less than 20 is denoted as A)”.
With `CCO[C@@H]1C[C@H]2C(=O)NC3(CC(C)(C)C3)C(=O)N(C)[C@@H](C3CCCC3)C(=O)N(C)[C@H](C(=O)N(C)CC)CC(=O)N(C)[C@H]3CCC/C=C/c4ccc(cc4)C[C@@H](C(=O)N(C)CC(=O)N[C@@H](CCc4ccc(Cl)c(Cl)c4)C(=O)N2C1)N1CC/C=C\C[C@@H](C1=O)N(C)C(=O)CN(C)C(=O)[C@H]([C@@H](C)CC)NC3=O` [PP2577] the “NRAS/KRAS (ratio of KD value with respect to GDP-bound NRAS wild-type protein to KD value with respect to KRAS)” value [1, 5] was “A (a compound having 10 or more and less than 20 is denoted as A)” and the “HRAS/KRAS (ratio of KD value with respect to GDP-bound HRAS wild-type protein to KD value with respect to KRAS)” value [2, 6] was “A (a compound having 10 or more and less than 20 is denoted as A)”.
In the case of `CCCN1C(=O)[C@@H]2CCN2C(=O)CN(C)C(=O)[C@H]([C@@H](C)CC)NC(=O)[C@H](CC(C)C)N(C)C(=O)C[C@@H](C(=O)N2CCOCC2)N(C)C(=O)[C@H](C2CCCC2)N(C)C(=O)C2(CCCC2)NC(=O)[C@@H]2CCCN2C(=O)[C@H](CCc2ccc(C(F)(F)F)c(Cl)c2)NC(=O)CN(C)C(=O)[C@@H]1Cc1ccc(C(F)(F)F)cc1` [PP0156] ([NMeL]I[Sar][Aze][NPrPhe(4-CF3)][Sar][hPhe(3-Cl-4-CF3)]P[Ac5c][NMeGly(cPent)][NMeD]-Morpholide; lactam N-11), the “NRAS/KRAS (ratio of KD for GDP-bound NRAS wild-type to KD for KRAS)” value ([1]; KD ratio NRAS/KRAS, SPR) is reported as “C (A compound having a KD ratio of 0.1 or more and less than 3 is denoted as C)” and the “HRAS/KRAS (ratio of KD for GDP-bound HRAS wild-type to KD for KRAS)” value ([2]; KD ratio HRAS/KRAS, SPR) is reported as “B (a compound having 3 or more and less than 10 is denoted as B)”.
